Source: patent publication US10202361B2, “Pyridazinones as herbicides” (E I DU PONT DE NEMOURS AND COMPANY, priority 2014, dated 2019)
Where two headings read alike, the source gives them in different places.

Key:
Experiment in all cases: Test A pre-/postemergence greenhouse herbicide test
Assay type in all cases: in vivo
[1] = system: barnyardgrass (Echinochloa crus-galli); conditions: Echinochloa crus-galli, 240 h, 0 to 100 scale (0 no effect, 100 complete control), approx. 10 d, read-out: Plant response rating, Barnyardgrass; for pest or weed control at 125 g/ha: 125 g ai/ha; for pest or weed control at 500 g/ha: 500 g ai/ha
Outline: (§1)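 Seeds sown in loam–sand blend received a directed preemergence soil spray; postemergence spray was applied at the same time to plants 2–10 cm tall at one- to two-leaf stage. Compounds were in non-phytotoxic solvent with surfactant. Visual injury versus untreated controls after ~10 d in greenhouse, 0–100 scale (100 = complete control).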

corn (Zea mays) = conditions: Zea mays, 240 h, 0 to 100 scale (0 no effect, 100 complete control), approx. 10 d; for Corn plant response rating (crop injury, 0 = no effect, 100 = complete kill) at 125 g/ha: 125 g ai/ha; for Corn plant response rating (crop injury, 0 = no effect, 100 = complete kill) at 500 g/ha: 500 g ai/ha
Outline: as §1

[2] = system: crabgrass, Large (large crabgrass, Digitaria sanguinalis); conditions: Digitaria sanguinalis, 240 h, 0 to 100 scale (0 no effect, 100 complete control), approx. 10 d, read-out: Plant response rating, Crabgrass, Large; for pest or weed control at 125 g/ha: 125 g ai/ha; for pest or weed control at 500 g/ha: 500 g ai/ha
Outline: as §1

[3] = system: foxtail, giant (giant foxtail, Setaria faberii); conditions: Setaria faberi, 240 h, 0 to 100 scale (0 no effect, 100 complete control), approx. 10 d, read-out: Plant response rating, Foxtail, Giant; for pest or weed control at 125 g/ha: 125 g ai/ha; for pest or weed control at 500 g/ha: 500 g ai/ha
Outline: as §1

[4] = system: morningglory (Ipomoea spp.); conditions: Ipomoea, 240 h, 0 to 100 scale (0 no effect, 100 complete control), approx. 10 d, read-out: Plant response rating, Morningglory; for pest or weed control at 125 g/ha: 125 g ai/ha; for pest or weed control at 500 g/ha: 500 g ai/ha
Outline: as §1

[5] = system: pigweed (Amaranthus retroflexus); conditions: Amaranthus retroflexus, 240 h, 0 to 100 scale (0 no effect, 100 complete control), approx. 10 d, read-out: Plant response rating, Pigweed; for pest or weed control at 125 g/ha: 125 g ai/ha; for pest or weed control at 500 g/ha: 500 g ai/ha
Outline: as §1

[6] = system: velvetleaf (Abutilon theophrasti); conditions: Abutilon theophrasti, 240 h, 0 to 100 scale (0 no effect, 100 complete control), approx. 10 d, read-out: Plant response rating, Velvetleaf; for pest or weed control at 125 g/ha: 125 g ai/ha; for pest or weed control at 500 g/ha: 500 g ai/ha
Outline: as §1

[7] = system: wheat (Triticum aestivum); conditions: Triticum aestivum, 240 h, 0 to 100 scale (0 no effect, 100 complete control), approx. 10 d, read-out: Plant response rating, Wheat; for plant injury at 125 g/ha: 125 g ai/ha; for plant injury at 500 g/ha: 500 g ai/ha
Outline: as §1

## CCOc1cc(=O)n(-c2ccc(F)cc2)nc1C(=O)c1ccnc(C(F)(F)F)c1 [Compound 22, 5-ethoxy-2-(4-fluorophenyl)-6-[[2-(trifluoromethyl)-4-pyridinyl]carbonyl]-3(2H)-pyridazinone]
[1]; post-emergence, Postemergence
  pest or weed control at 125 g/ha: 20%
  pest or weed control at 500 g/ha: 100%
[1]; pre-emergence, Preemergence
  pest or weed control at 125 g/ha: 20%
  pest or weed control at 500 g/ha: 80%
Corn (Zea mays); post-emergence, Postemergence
  Corn plant response rating (crop injury, 0 = no effect, 100 = complete kill) at 125 g/ha: 50%
  Corn plant response rating (crop injury, 0 = no effect, 100 = complete kill) at 500 g/ha: 90%
Corn (Zea mays); pre-emergence, Preemergence
  Corn plant response rating (crop injury, 0 = no effect, 100 = complete kill) at 125 g/ha: 0%
  Corn plant response rating (crop injury, 0 = no effect, 100 = complete kill) at 500 g/ha: 20%
[2]; post-emergence, Postemergence
  pest or weed control at 125 g/ha: 60%
  pest or weed control at 500 g/ha: 100%
[2]; pre-emergence, Preemergence
  pest or weed control at 125 g/ha: 100%
  pest or weed control at 500 g/ha: 100%
[3]; post-emergence, Postemergence
  pest or weed control at 125 g/ha: 60%
  pest or weed control at 500 g/ha: 100%
[3]; pre-emergence, Preemergence
  pest or weed control at 125 g/ha: 90%
  pest or weed control at 500 g/ha: 100%
[4]; post-emergence, Postemergence
  pest or weed control at 125 g/ha: 40%
  pest or weed control at 500 g/ha: 100%
[4]; pre-emergence, Preemergence
  pest or weed control at 125 g/ha: 30%
  pest or weed control at 500 g/ha: 100%
[5]; post-emergence, Postemergence
  pest or weed control at 125 g/ha: 100%
  pest or weed control at 500 g/ha: 100%
[5]; pre-emergence, Preemergence
  pest or weed control at 125 g/ha: 100%
  pest or weed control at 500 g/ha: 100%
[6]; post-emergence, Postemergence
  pest or weed control at 125 g/ha: 20%
  pest or weed control at 500 g/ha: 50%
[6]; pre-emergence, Preemergence
  pest or weed control at 125 g/ha: 40%
  pest or weed control at 500 g/ha: 100%
[7]; post-emergence, Postemergence
  plant injury at 125 g/ha: 60%
  plant injury at 500 g/ha: 90%
[7]; pre-emergence, Preemergence
  plant injury at 125 g/ha: 10%
  plant injury at 500 g/ha: 40%
